We go through five substances from patent publication US9833497B2, “Human originated EGF domain proteins and use of the same” (CHENGDU SOURCEBIO LIMITED-LIABILITY COMPANY, priority 2013, dated 2017).

Type in all cases: cell-based
Assay [1] has as its system E. coli BL21. In words: MIC against Gram-negative bacteria: E. coli BL21. The following applies: 5×10^5 CFU/mL. The method in brief:
(§1)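 Bacteria grown in LB at 37° C with shaking to McFarland 0.5, pelleted and resuspended in fresh LB, then seeded at 5×10^5 CFU/mL per well. Purified recombinant human EGF domain proteins were two-fold serially diluted in triplicate and plates shaken at 37° C, 175 rpm. MIC is the lowest protein concentration with no bacterial growth.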

The test system of assay [2] is Pseudomonas aeruginosa. The assay can be described thus: MIC against Gram-negative bacteria: Pseudomonas aeruginosa. The conditions noted are these: 5×10^5 CFU/mL. The method in brief:
as §1

The subject of assay [3] is Moraxella catarrhalis. In words: MIC against Gram-negative bacteria: Moraxella catarrhalis. The conditions noted are these: 5×10^5 CFU/mL. Put shortly:
as §1

The test system of assay [4] is Proteus vulgaris. In words: MIC against Gram-negative bacteria: Proteus vulgaris. The conditions noted are these: 5×10^5 CFU/mL. The method in brief: as §1
The subject of assay [5] is Citrobacter diversus. The assay can be described thus: MIC against Gram-negative bacteria: Citrobacter diversus. The conditions noted are these: 5×10^5 CFU/mL. Put shortly: as §1
For assay [6], the system named is Proteus mirabilis. The assay can be described thus: MIC against Gram-negative bacteria: Proteus mirabilis. The conditions noted are these: 5×10^5 CFU/mL. The method in brief: as §1
The subject of assay [7] is Serratia marcescens. The assay can be described thus: MIC against Gram-negative bacteria: Serratia marcescens. The following applies: 5×10^5 CFU/mL. Put shortly:
as §1

Assay [8] has as its system Enterobacter cloacae. In words: MIC against Gram-negative bacteria: Enterobacter cloacae. The conditions noted are these: 5×10^5 CFU/mL. The method in brief: as §1
Assay [9] deals with E. coli DH5α. In words: Antibacterial activity: MIC and growth curve against E. coli DH5α in 96-well plate. The conditions noted are these: minimal inhibitory concentration against E. coli DH5α; 96-well plate, 5×10^5 CFU/mL, 37° C., judged after 8 h. Put shortly:
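Log-phase DH5α (OD600 about 0.5, 37° C, 185 rpm in LB) was pelleted, resuspended in fresh LB and seeded at 5×10^5 CFU/mL with recombinant protein at 50, 25 and 12.5 μg/mL (two-fold series), in triplicate. Plates were shaken at 175 rpm, 37° C, and OD600 was read every 30 min. MIC was the lowest concentration with no growth.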

Assay [10] has as its system Klebsiella pneumonia. The assay can be described thus: MIC against Gram-negative bacteria: Klebsiella pneumonia. The following applies: 5×10^5 CFU/mL. The method in brief: as §1
The test system of assay [11] is Aeromonas hydrophila. In words: MIC against Gram-negative bacteria: Aeromonas hydrophila. The following applies: 5×10^5 CFU/mL. The method in brief:
as §1

[12] abbreviates: E. coli BL21, 10 h cultivation at 37° C.
[13] abbreviates: 10 h cultivation at 37° C., two-fold serial dilution.

One may read the MIC as the lowest concentration that inhibits growth of the organism.

As to “PRT1365 (SQLRCPNDCHSRGRCVEGKCVCEQGFKGYDCS; listed as Homo sapiens)”, the “MIC against E. coli BL21” value in [1] (setting [12]) was determined as 100 µg/mL. The “MIC against P. aeruginosa” value in [2] (Pseudomonas aeruginosa, 10 h cultivation at 37° C.) amounted to 25 µg/mL. Also, the “MIC against M. catarrhalis” value in assay [3] (Moraxella catarrhalis, 10 h cultivation at 37° C.) was determined as 25 µg/mL. For the same substance, the “MIC against P. vulgaris” value in [4] (Proteus vulgaris, 10 h cultivation at 37° C.) came out at 25 µg/mL. Besides, in assay [5] (Citrobacter diversus, 10 h cultivation at 37° C.), the “MIC against C. diversus” value is 50 µg/mL. The “MIC against P. mirabilis” value in [6] (Proteus mirabilis, 10 h cultivation at 37° C.) was 12.5 µg/mL. For the same substance, in assay [7] (Serratia marcescens, 10 h cultivation at 37° C.), the “MIC against S. marcescens” value turned out to be 12.5 µg/mL. Moreover, in assay [8] (Enterobacter cloacae, 10 h cultivation at 37° C.), the “MIC against E. cloacae” value was 25 µg/mL. In [9], the MIC was 12.5 µg/mL. Also, in assay [10] (Klebsiella pneumonia, 10 h cultivation at 37° C.), the “MIC against K. pneumonia” value was found to be 50 µg/mL. For the same substance, in assay [11] (Aeromonas hydrophila, 10 h cultivation at 37° C.), the “MIC against A. hydrophila” value worked out at 12.5 µg/mL.

As to “PRT851 (DELDCGPSNCSQHGLCTETGCRCDAGWTGSNCS; listed as Homo sapiens)”, the “MIC (μg/mL) E. coli BL21” value in assay [1] (setting [12]) came to 12.5 µg/mL. Besides, in assay [2] (10 h cultivation at 37° C.), the “MIC (μg/mL) P. aeruginosa” value is 25 µg/mL. Besides, in assay [3] (10 h cultivation at 37° C.), the “MIC (μg/mL) M. catarrhalis” value came out at 12.5 µg/mL. In addition, in assay [4] (10 h cultivation at 37° C.), the “MIC (μg/mL) P. vulgaris” value was 12.5 µg/mL. Besides, the “MIC (μg/mL) C. diversus” value in [5] (10 h cultivation at 37° C.) turned out to be 12.5 µg/mL. For the same substance, the “MIC (μg/mL) P. mirabilis” value in assay [6] (10 h cultivation at 37° C.) came to 25 µg/mL. The “MIC (μg/mL) S. marcescens” value in assay [7] (10 h cultivation at 37° C.) was found to be 25 µg/mL. The “MIC (μg/mL) E. cloacae” value in assay [8] (10 h cultivation at 37° C.) was found to be 12.5 µg/mL. In [9], the minimal inhibitory concentration (MIC) stood at 25 µg/mL. For the same substance, in assay [10] (10 h cultivation at 37° C.), the “MIC (μg/mL) K. pneumonia” value came to 12.5 µg/mL. Further, the “MIC (μg/mL) A. hydrophila” value in [11] (10 h cultivation at 37° C.) worked out at 12.5 µg/mL.

In the case of “PRT679 (DLNECAKPHLCGDGGFCINFPGHYKCNCYPGYRLKASRPPVCE; listed as Homo sapiens)”, in [1] (96-well plate, 37° C., 10 h), the “MIC E. coli BL21” value was determined as 50 µg/mL. In addition, the “MIC P. aeruginosa” value in assay [2] (96-well plate, 37° C., 10 h) stood at 25 µg/mL. In addition, the “MIC M. catarrhalis” value in assay [3] (96-well plate, 37° C., 10 h) was 12.5 µg/mL. In addition, the “MIC P. vulgaris” value in assay [4] (96-well plate, 37° C., 10 h) was determined as 50 µg/mL. Further, the “MIC C. diversus” value in assay [5] (96-well plate, 37° C., 10 h) is 50 µg/mL. The “MIC P. mirabilis” value in assay [6] (96-well plate, 37° C., 10 h) turned out to be 25 µg/mL. Besides, in assay [7] (96-well plate, 37° C., 10 h), the “MIC S. marcescens” value came to 25 µg/mL. In addition, the “MIC E. cloacae” value in assay [8] (96-well plate, 37° C., 10 h) amounted to 12.5 µg/mL. Further, the MIC in assay [9] was determined as 12.5 µg/mL. In addition, the “MIC K. pneumonia” value in assay [10] (96-well plate, 37° C., 10 h) is 25 µg/mL. Moreover, in assay [11] (96-well plate, 37° C., 10 h), the “MIC A. hydrophila” value turned out to be 25 µg/mL.

For the substance “PRT1129 (PVTNCASSPCQNGGTCLQHTQVSYECLCKPEFTGLTCV; listed as Homo sapiens)”, the “MIC E. coli BL21” value in assay [1] (setting [13]) was determined as 12.5 µg/mL. Also, the “MIC P. aeruginosa” value in assay [2] (setting [13]) turned out to be 50 µg/mL. Moreover, in assay [3] (setting [13]), the “MIC M. catarrhalis” value was determined as 12.5 µg/mL. For the same substance, the “MIC P. vulgaris” value in [4] (setting [13]) amounted to 12.5 µg/mL. The “MIC C. diversus” value in [5] (setting [13]) is 12.5 µg/mL. Besides, the “MIC P. mirabilis” value in assay [6] (setting [13]) is 12.5 µg/mL. For the same substance, the “MIC S. marcescens” value in [7] (setting [13]) is 12.5 µg/mL. In addition, the “MIC E. cloacae” value in assay [8] (setting [13]) turned out to be 12.5 µg/mL. Moreover, the MIC in [9] stood at 50 µg/mL. Besides, the “MIC K. pneumonia” value in [10] (setting [13]) turned out to be 12.5 µg/mL. Further, the “MIC A. hydrophila” value in [11] (setting [13]) worked out at 25 µg/mL.

Regarding “PRT233 (DSRGCARWCPQDSSCVNATACRCNPGFSSFSEIITTPMETCD; listed as Homo sapiens)”, the “MIC (μg/mL) E. coli BL21” value in assay [1] (setting [12]) is 25 µg/mL. Also, the “MIC (μg/mL) P. aeruginosa” value in assay [2] (10 h cultivation at 37° C.) worked out at 12.5 µg/mL. In assay [3] (10 h cultivation at 37° C.), the “MIC (μg/mL) M. catarrhalis” value came out at 25 µg/mL. In addition, the “MIC (μg/mL) P. vulgaris” value in assay [4] (10 h cultivation at 37° C.) was 25 µg/mL. In [5] (10 h cultivation at 37° C.), the “MIC (μg/mL) C. diversus” value came out at 12.5 µg/mL. For the same substance, the “MIC (μg/mL) P. mirabilis” value in assay [6] (10 h cultivation at 37° C.) was 100 µg/mL. In [7] (10 h cultivation at 37° C.), the “MIC (μg/mL) S. marcescens” value was determined as 12.5 µg/mL. In addition, in assay [8] (10 h cultivation at 37° C.), the “MIC (μg/mL) E. cloacae” value was determined as 12.5 µg/mL. The substance further showed an MIC in assay [9] of 12.5 µg/mL. The “MIC (μg/mL) K. pneumonia” value in assay [10] (10 h cultivation at 37° C.) turned out to be 25 µg/mL. Besides, in assay [11] (10 h cultivation at 37° C.), the “MIC (μg/mL) A. hydrophila” value worked out at 25 µg/mL.
